The results in this text go back to ChEMBL document CHEMBL3860089, “Design, synthesis, and biological evaluation of α-hydroxyacyl-AMS inhibitors of amino acid adenylation enzymes” (Bioorg Med Chem Lett, 2016).

For data set [1], the target named is T1, Yersiniabactin biosynthetic protein (Yersinia pestis, UniProt A0A2S9PH42).
The target in data set [2] is T1, Yersiniabactin biosynthetic protein. The note with it: read-out: Ki(app).
Data set [3] can be described thus: Inhibition of aminoacyl tRNA synthetase in T7 coupled rabbit reticulocyte lysate assessed as reduction in transcription/translation of luciferase template DNA propagated in Escherichia coli DH5alpha after 90 mins. More on the design: species or system Oryctolagus cuniculus.
Data set [4] in a line: Drug uptake in Mycobacterium smegmatis ATCC 700084 at 100 uM by LC-MS/Ms analysis. The class given is ADME. The note with it: mycolicibacterium smegmatis.
Data set [5] is described as follows: Drug uptake in Escherichia coli ATCC 25922 at 100 uM by LC-MS/Ms analysis. It is filed as ADME. The conditions noted are these: escherichia coli atcc 25922, 100 µM.
A short description of data set [6]: Drug uptake in Bacillus subtilis ATCC 6051 at 100 uM by LC-MS/Ms analysis. The class given is ADME.

A word on the IC50: it is the concentration that gives 50% inhibition.

T1 sequence (A0A2S9PH42 whole entry): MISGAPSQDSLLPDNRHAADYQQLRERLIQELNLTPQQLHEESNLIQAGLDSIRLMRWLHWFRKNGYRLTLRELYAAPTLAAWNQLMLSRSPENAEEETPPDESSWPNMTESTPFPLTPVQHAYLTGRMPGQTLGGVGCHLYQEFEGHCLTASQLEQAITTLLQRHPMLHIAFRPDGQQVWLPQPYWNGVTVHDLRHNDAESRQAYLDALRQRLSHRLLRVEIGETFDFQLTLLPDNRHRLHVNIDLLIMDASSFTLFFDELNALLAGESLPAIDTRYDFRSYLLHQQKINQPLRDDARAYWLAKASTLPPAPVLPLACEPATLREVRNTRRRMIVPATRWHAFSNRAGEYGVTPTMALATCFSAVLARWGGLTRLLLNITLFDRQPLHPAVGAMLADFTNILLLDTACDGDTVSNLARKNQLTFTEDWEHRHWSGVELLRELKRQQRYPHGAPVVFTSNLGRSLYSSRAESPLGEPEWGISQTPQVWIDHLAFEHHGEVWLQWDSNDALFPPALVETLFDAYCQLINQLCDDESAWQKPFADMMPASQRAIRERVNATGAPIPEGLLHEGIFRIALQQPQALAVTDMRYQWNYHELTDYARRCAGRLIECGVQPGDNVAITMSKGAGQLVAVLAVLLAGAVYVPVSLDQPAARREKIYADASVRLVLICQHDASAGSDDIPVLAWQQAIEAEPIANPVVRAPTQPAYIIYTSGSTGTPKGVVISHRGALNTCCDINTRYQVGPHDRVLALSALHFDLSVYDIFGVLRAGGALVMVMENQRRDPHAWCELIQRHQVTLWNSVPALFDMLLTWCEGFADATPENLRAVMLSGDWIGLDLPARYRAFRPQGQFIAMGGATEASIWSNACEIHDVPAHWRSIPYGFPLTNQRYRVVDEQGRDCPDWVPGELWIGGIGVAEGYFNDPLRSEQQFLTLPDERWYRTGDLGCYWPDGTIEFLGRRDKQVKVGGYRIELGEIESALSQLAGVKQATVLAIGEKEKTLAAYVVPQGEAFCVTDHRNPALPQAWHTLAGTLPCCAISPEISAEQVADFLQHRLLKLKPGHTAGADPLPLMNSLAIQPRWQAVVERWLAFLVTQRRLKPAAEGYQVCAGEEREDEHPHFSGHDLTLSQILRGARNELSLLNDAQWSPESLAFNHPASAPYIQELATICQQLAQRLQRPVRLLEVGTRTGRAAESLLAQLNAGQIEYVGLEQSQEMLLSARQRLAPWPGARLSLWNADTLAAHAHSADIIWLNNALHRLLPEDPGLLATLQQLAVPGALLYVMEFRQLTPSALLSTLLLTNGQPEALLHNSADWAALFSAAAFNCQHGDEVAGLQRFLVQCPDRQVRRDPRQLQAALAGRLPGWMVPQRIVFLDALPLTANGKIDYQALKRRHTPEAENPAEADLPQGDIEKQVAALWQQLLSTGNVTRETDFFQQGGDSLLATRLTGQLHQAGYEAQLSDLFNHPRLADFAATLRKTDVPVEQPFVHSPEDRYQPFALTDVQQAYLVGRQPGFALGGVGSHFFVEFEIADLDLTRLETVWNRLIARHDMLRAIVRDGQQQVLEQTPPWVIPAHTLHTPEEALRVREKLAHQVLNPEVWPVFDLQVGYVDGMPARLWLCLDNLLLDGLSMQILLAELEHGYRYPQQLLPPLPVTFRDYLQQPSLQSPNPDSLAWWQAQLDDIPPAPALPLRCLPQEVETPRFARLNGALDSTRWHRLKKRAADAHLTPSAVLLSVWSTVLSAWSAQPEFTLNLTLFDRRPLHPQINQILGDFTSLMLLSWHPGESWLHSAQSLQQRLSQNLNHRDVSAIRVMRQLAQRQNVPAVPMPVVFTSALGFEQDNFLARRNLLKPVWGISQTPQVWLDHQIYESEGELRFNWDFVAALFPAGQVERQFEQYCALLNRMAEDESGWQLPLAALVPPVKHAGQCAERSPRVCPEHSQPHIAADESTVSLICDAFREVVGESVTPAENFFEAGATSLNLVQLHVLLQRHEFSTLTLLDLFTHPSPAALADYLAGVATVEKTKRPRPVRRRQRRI

For the molecule `Nc1ncnc2c1ncn2[C@@H]1O[C@H](COS(=O)(=O)NC(=O)[C@@H](N)CS)[C@@H](O)[C@H]1O`, the IC50 stood at 0.04 µM in data set [1] and 3.27 µM in data set [3]. Further, the Ki in data set [2] was determined as 0.24 µM.

As for `C[C@H](O)C(=O)NS(=O)(=O)OC[C@H]1O[C@@H](n2cnc3c(N)ncnc32)[C@H](O)[C@@H]1O`, the IC50 in data set [1] was greater than 1000 µM; in data set [3], 166 µM. The Drug uptake in data set [4], in data set [5] and in data set [6] was 28 to 53 µM each time.

In the case of `Nc1ncnc2c1nc1n2[C@@H]2O[C@H](COS(=O)(=O)NC(=O)[C@@H](N)CCC1)[C@@H](O)[C@H]2O`, the IC50 is 0.34 µM in data set [1] and greater than 250 µM in data set [3]. In data set [2], the Ki worked out at 1.7 µM.

With `Nc1ncnc2c1ncn2[C@@H]1O[C@H](COS(=O)(=O)NC(=O)[C@@H](O)CS)[C@@H](O)[C@H]1O`, the IC50 turned out to be 16.5 µM in data set [1] and 222 µM in data set [3].

On to `Nc1ncnc2c1nc1n2[C@@H]2O[C@H](COS(=O)(=O)NC(=O)[C@@H](O)CCC1)[C@@H](O)[C@H]2O`, for which the IC50 is greater than 1000 µM in data set [1] and greater than 250 µM in data set [3].

As to `C[C@H](N)C(=O)NS(=O)(=O)OC[C@H]1O[C@@H](n2cnc3c(N)ncnc32)[C@H](O)[C@@H]1O` [ALASA], the IC50 in data set [1] is 1.15 µM; in data set [3], 0.118 to 0.16 µM. Also, the Drug uptake entry in data set [4] (BLD = below limit of detection), in data set [5] (BLD = below limit of detection) and in data set [6] (BLD = below limit of detection) was “Bld” throughout. The Ki in data set [2] amounted to 2.5 µM.
